The values below come from patent US6339077B1, “Substituted 4-benzylaminoquinolines and their hetero analogs, process for their preparation, pharmaceuticals containing these compounds and use thereof” (Aventis Pharma Deutschland GmbH, priority 1999, dated 2002).

For the first experiment, the target named is T1, human NHE-3 protein (expressed in the LAP1 cell line) (Homo sapiens, UniProt P48764).
T1 construct: expressed in transfected cells; host or cells: LAP1 cell line
T1 sequence (P48764 26-834): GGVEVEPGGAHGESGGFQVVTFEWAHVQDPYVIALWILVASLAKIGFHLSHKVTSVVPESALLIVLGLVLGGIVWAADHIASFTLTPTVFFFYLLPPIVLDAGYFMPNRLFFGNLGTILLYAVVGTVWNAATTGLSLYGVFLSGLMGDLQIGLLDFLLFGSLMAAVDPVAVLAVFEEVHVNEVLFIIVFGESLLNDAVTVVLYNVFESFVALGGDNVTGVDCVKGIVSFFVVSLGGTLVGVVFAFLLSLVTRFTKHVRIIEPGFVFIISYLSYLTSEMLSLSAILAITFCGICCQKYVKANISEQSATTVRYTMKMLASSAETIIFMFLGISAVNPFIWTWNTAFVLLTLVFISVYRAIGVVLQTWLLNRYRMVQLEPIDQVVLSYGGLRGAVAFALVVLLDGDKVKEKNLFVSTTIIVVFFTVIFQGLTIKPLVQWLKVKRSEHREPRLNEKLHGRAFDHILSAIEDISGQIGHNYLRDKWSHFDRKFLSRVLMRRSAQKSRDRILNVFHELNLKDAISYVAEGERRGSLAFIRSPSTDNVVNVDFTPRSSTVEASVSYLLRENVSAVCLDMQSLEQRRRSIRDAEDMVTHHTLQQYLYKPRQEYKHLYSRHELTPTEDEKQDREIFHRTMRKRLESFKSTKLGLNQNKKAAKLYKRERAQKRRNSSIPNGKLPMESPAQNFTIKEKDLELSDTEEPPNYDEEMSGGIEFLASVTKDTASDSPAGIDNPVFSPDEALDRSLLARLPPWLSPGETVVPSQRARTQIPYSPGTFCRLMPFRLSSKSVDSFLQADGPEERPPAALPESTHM
Description: Inhibition of sodium/proton exchanger subtype 3: recovery of intracellular pH after acidification (BCECF fluorescence). In kind it is cell-based. Particulars: at 30 μM, pHi recovery as percentage of the maximum recovery. How it is done:
Biological testing of the novel compounds was accomplished by measuring inhibition of the sodium/proton exchanger subtype 3.
The remaining activity of the human NHE-3 protein (expressed in the LAP1 cell line) was determined by measuring the recovery in the intracellular pH (pHi) after an acidification, which starts when the NHE is capable of functioning, even under bicarbonate-free conditions. For this purpose, the pHi was determined using the pH-sensitive fluorescent dye BCECF (Calbiochem, the precursor BCECF-AM is employed). The cells were initially loaded with BCECF. […] The intracellular acidification was induced by addition of 975 μl of an NH4Cl-free buffer (see below) to 25 μl aliquots of the cells incubated in NH4Cl buffer. The subsequent rate of pH recovery was recorded for 3 minutes. To calculate the inhibitory power of the substances tested, the cells were initially investigated in buffers in which complete or absolutely no pH recovery took place. […] Test solutions of the substances of interest were made up in the Na^+-containing buffer. Recovery of the intracellular pH at the tested concentration of a substance was expressed as a percentage of the maximum recovery.
Consider `CC(=O)c1c(C)nc2ccccc2c1NCc1ccc(CCC2(O)CCC3(C)C(CC(O)C4C3CC(O)C3(C)C(C(C)CCC(=O)O)CCC43)C2)cc1` (stereo not drawn) [Example 2, 2-Methyl-3-acetyl-4-{4-[1-(3α,7α, 12α-trihydroxy-10β,13β-dimethyl-17β-(3-carboxy-1-methylpropyl)hexadecahydrocyclopenta[a]phenanthren-3-yl)eth-2-yl]benzylamino}quinoline], for which the “remaining activity of hNHE3” value is 33%.
Same read-out and setting: the same measure for `CC(=O)c1c(C)nc2ccccc2c1NCc1ccccc1CCC1(O)CCC2(C)C(CC(O)C3C2CC(O)C2(C)C(C(C)CCC(=O)O)CCC32)C1` (stereo not drawn) [Example 18, 2-Methyl-3-acetyl-4-{2-[1-(3α,7α,12α-trihydroxy-10β,13β-dimethyl-17β(3-carboxy-1-methylpropyl)hexadecahydrocyclopenta[a]phenanthren-3-yl)eth-2-yl]benzylamino}quinoline]: 36%.

The experiment is the same for the next values; noted with them: pHi recovery as percentage of the maximum recovery, read-out: remaining activity of hNHE3.
As a reminder, the remaining activity is what remains of the control signal, in per cent. Turning to `CC(=O)c1c(C)nc2ccccc2c1NCc1ccc(C#CC2(O)CCC3(C)C(CC(O)C4C3CC(O)C3(C)C4CC[C@@H]3C(C)CCC(=O)O)C2)cc1` (stereo partly drawn) [Example 1, 2-Methyl-3-acetyl-4-{4-[1-(3α,7α, 12α-trihydroxy-10β, 13β-dimethyl-17β-(carboxy-1-methylpropyl)hexadecahydrocyclopenta[a]phenanthren-3-yl)ethyn-2-yl]-benzylamino}quinoline], the remaining activity at 30 µM came to 26%.
Same read-out and setting: the same measure for `COC(=O)CC[C@@H](C)[C@H]1CCC2C3C(C[C@H](O)[C@@]21C)[C@@]1(C)CC[C@H](OCCNC(=O)c2c(C)nc4ccccc4c2NCc2ccccc2)CC1C[C@H]3O` (stereo partly drawn) [Example 3, 2-Methyl-4-aminobenzyl-N-{2-[7α, 12α-dihydroxy-10β,13β-dimethyl-17β-(3-methoxycarbonyl-1-methylpropyl)hexadecahydrocyclopenta[a]phen-anthren-3β-yloxy]ethyl}quinoline-3-carboxamide]: 22%.
Still for that read-out and setting: the same measure for `COC(=O)c1c(C)nc2ccccc2c1NCc1ccc(C#CC2(O)CCC3(C)C(CC(O)C4C3CC(O)C3(C)C4CC[C@@H]3C(C)CCC(=O)O)C2)cc1` (stereo partly drawn) [Example 6, Methyl 2-methyl-4-{4-[1-(3α,7α,12α-trihydroxy-10β, 13β-dimethyl-17β-(3carboxy-1-methylpropyl)hexadecahydrocyclopenta[a]phenanthren-3-yl)ethyn-2-yl]benzylamino}quinoline-3-carboxylate]: 39%; for `CC(=O)c1c(C)nc2ccccc2c1NCc1cccc(CC[C@@]2(O)CC[C@@]3(C)C(C[C@@H](O)C4C3C[C@H](O)[C@@]3(C)C4CC[C@@H]3[C@H](C)CCC(=O)NCC(=O)O)C2)c1` (stereo partly drawn) [Example 15, 2-Methyl-3-acetyl-4-{3-[1-(3α,7α,12α-trihydroxy-10β,13β-dimethyl-17β-(3-carboxymethylcarbamoyl-1-methylpropyl)hexadecahydrocyclopenta[a]phenanthren-3-yl)eth-2-yl]benzylamino}quinoline]: 65%.
Same read-out and setting: the same measure for `CC(=O)c1c(C)nc2ccccc2c1NCc1cccc(CC[C@@]2(O)CC[C@@]3(C)C(C[C@@H](O)C4C3C[C@H](O)[C@@]3(C)C4CC[C@@H]3[C@H](C)CCC(=O)NCCS(=O)(=O)O)C2)c1` (stereo partly drawn) [Example 16, 2-Methyl-3-acetyl-4-{3-[1-(3α,7α,12α-trihydroxy-10β,13β-dimethyl-17β(3-(2-sulfoethylcarbamoyl)-1-methylpropyl)hexadecahydrocyclopenta[a]phenanthren-3-yl)eth-2-yl]benzylamino}quinoline]: 27%.
Regarding `CC(=O)c1c(C)nc2ccccc2c1NCc1ccccc1C#CC1(O)CC[C@@]2(C)C(CC(O)C3C2CC(O)[C@@]2(C)C3CC[C@@H]2[C@H](C)CCC(=O)O)C1` (stereo partly drawn) [Example 17, 2-Methyl-3-acetyl-4-{2-[1-(3α,7α,12α-trihydroxy-10β,13β-dimethyl-17β-(3-carboxy-1-methylpropyl)hexadecahydrocyclopenta[a]phenanthren-3-yl)ethyn-2-yl]benzylamino}quinoline], the remaining activity at 30 µM worked out at 36%.
On to `CC(=O)c1c(C)nc2ccccc2c1NCc1ccc(C#CC2(O)CCC3(C)C(CC(O)C4C3CC(O)C3(C)C4CC[C@@H]3C(C)CCC(=O)O)C2)c(F)c1` (stereo partly drawn) [Example 23, 2-Methyl-3-acetyl-4-{4-[1-(3α,7α,12α-trihydroxy-10β,13β-dimethyl-17β-(3-carboxy-1-methylpropyl)hexadecahydrocyclopenta[a]phenanthren-3-yl)ethyn-2-yl]-3-fluorobenzylamino}quinoline], for which the remaining activity at 30 µM turned out to be 16%.
On to `CC(=O)c1c(C)nc2ccccc2c1NCc1ccc(CCC2(O)CCC3(C)C(CC(O)C4C3CC(O)C3(C)C4CC[C@@H]3C(C)CCC(=O)O)C2)c(F)c1` (stereo partly drawn) [Example 24, 2-Methyl-3-acetyl-4-{4-[1-(3α,7α,12α-trihydroxy-10β,13β-dimehtyl-17β-(3-carboxy-1-methylpropyl)hexadecahydrocyclopenta[a]phenanthren-3-yl)eth-2-yl]-3-fluorobenzylamino}quinoline], for which the remaining activity at 30 µM turned out to be 29%.
Still for that read-out and setting: the same measure for `CC(=O)c1c(C)nc2ccccc2c1NCc1ccc(C#CC2(O)CCC3(C)C(CC(O)C4C3CC(O)C3(C)C4CC[C@@H]3C(C)CCC(=O)O)C2)c(Cl)c1` (stereo partly drawn) [Example 25, 2-Methyl-3-acetyl-4-{4-[1-(3α,7α,12α-trihydroxy-10β,13β-dimethyl-17β-(3-carboxy-1-methylpropyl)hexadecahydrocyclopenta[a]phenanthren-3-yl)ethyn-2-yl]-3-chlorobenzylamino}quinoline]: 18%.
Still for that read-out and setting: the same measure for `CC(=O)c1c(C)nc2ccccc2c1NCc1ccc(C#CC2(O)CCC3(C)C(CC(O)C4C3CC(O)C3(C)C4CC[C@@H]3C(C)CCC(=O)O)C2)cc1F` (some centres unmarked) [Example 26]: 52%.
Still for that read-out and setting: the same measure for `CC(=O)c1c(C)nc2ccccc2c1NCc1ccc(CCC2(O)CCC3(C)C(CC(O)C4C3CC(O)C3(C)C4CC[C@@H]3C(C)CCC(=O)O)C2)cc1F` (stereo partly drawn) [Example 27, 2-Methyl-3-acetyl-4-{4-[1-(3α,7α,12α-trihydroxy-10β,13β-dimethyl-17β-(3-carboxy-1-methylpropyl)hexadecahydrocyclopenta[a]phenanthren-3-yl)eth-2-yl]-2-fluorobenzylamino}quinoline]: 54%; for `CC(=O)c1c(C)nc2ccccc2c1NCc1ccc(C#CC2(O)CCC3(C)C(CC(O)C4C3CC(O)C3(C)C4CC[C@@H]3C(C)CCC(=O)O)C2)cc1Cl` (stereo partly drawn) [Example 28, 2-Methyl-3-acetyl-4-{4-[1-(3α,7α,12α-trihydroxy-10β,13β-dimethyl-17β-(3-carboxy-1-methylpropyl)hexadecahydrocyclopenta[a]phenanthren-3-yl)ethyn-2-yl]-2-chlorobenzylamino}quinoline]: 69%.
In the case of `CC(=O)c1c(C)nc2ccccc2c1NCc1ccc(CCC2(O)CCC3(C)C(CC(O)C4C3CC(O)C3(C)C4CC[C@@H]3C(C)CCC(=O)O)C2)cc1Cl` (stereo partly drawn) [Example 29, 2-Methyl-3-acetyl-4-{4-[1-(3α,7α,12α-trihydroxy-10β,13β-dimethyl-17β(3-carboxy-1-methylpropyl)hexadecahydrocyclopenta[a]phenanthren-3-yl)eth-2-yl]-2-chlorobenzylamino}quinoline], the remaining activity at 30 µM is 61%.
For the molecule `CC(=O)c1c(NCc2ccc(C#CC3(O)CC[C@@]4(C)C(CC(O)C5C4CC(O)[C@@]4(C)C5CC[C@@H]4[C@H](C)CCC(=O)O)C3)cc2)cc(C)nc1C` (stereo partly drawn) [Example 30, 2,6-Dimethyl-3-acetyl-4-{4-[1-(3α,7α,12α-trihydroxy-10β,13β-dimethyl-17β-(3-carboxy-1-methylpropyl)hexadecahydrocyclopenta[a]phenanthren-3-yl)ethyn-2-yl]benzylamino}pyridine], the remaining activity at 30 µM came to 48%.
The same measure, in the same setting: the same measure for `CC(=O)c1c(NCc2ccc(CCC3(O)CC[C@@]4(C)C(CC(O)C5C4CC(O)[C@@]4(C)C5CC[C@@H]4[C@H](C)CCC(=O)O)C3)cc2)cc(C)nc1C` (stereo partly drawn) [Example 31, 2,6-Dimethyl-3-acetyl-4-{4-[1-(3α,7α,12α-trihydroxy-10β,13β-dimethyl-17β-(3-carboxy-1-methylpropyl)hexadecahydrocyclopenta[a]phenanthren-3-yl)eth-2-yl]benzylamino}pyridine]: 69%.
